Reference: the NIST ThermoML archive (doi:10.1021/je301219c)
± gives the expanded uncertainty stated by the source. Values belong to the molecule of their own block, whether it stands above or below them.

Settings: Liquid, Ebulliometric method (Recirculating still)

SMILES: CCN(CC)CCO [(diethylamino)ethanol]
vapor or sublimation pressure (418.34 K): 60 ± 1.2 kPa
vapor or sublimation pressure (435.94 K): 101.3 ± 2.1 kPa

SMILES: CCNCC [diethylamine]
vapor or sublimation pressure (313.64 K): 60 ± 1 kPa
vapor or sublimation pressure (328.67 K): 101.3 ± 1.8 kPa

vapor or sublimation pressure (324.92 K): 60 ± 0.87 kPa
vapor or sublimation pressure (337.82 K): 101.3 ± 1.6 kPa
SMILES: CO [methanol]
